What all share (format): protein-complex assay
Experiment [1] concerns the target T1, Integrin alpha-4/beta-1 (Homo sapiens, UniProt P05556+P13612). In words: Inhibition of alpha4-beta1 integrin connecting segment 1 (CS1) splice variant binding interaction at 100 uM.
The target of experiment [2] is T1, Integrin alpha-4/beta-1. In words: Inhibition of alpha4-beta1 integrin connecting segment 1 (CS1) splice variant binding interaction.
Target sequence in this assay (P05556 21-798 limits assumed, change not shown): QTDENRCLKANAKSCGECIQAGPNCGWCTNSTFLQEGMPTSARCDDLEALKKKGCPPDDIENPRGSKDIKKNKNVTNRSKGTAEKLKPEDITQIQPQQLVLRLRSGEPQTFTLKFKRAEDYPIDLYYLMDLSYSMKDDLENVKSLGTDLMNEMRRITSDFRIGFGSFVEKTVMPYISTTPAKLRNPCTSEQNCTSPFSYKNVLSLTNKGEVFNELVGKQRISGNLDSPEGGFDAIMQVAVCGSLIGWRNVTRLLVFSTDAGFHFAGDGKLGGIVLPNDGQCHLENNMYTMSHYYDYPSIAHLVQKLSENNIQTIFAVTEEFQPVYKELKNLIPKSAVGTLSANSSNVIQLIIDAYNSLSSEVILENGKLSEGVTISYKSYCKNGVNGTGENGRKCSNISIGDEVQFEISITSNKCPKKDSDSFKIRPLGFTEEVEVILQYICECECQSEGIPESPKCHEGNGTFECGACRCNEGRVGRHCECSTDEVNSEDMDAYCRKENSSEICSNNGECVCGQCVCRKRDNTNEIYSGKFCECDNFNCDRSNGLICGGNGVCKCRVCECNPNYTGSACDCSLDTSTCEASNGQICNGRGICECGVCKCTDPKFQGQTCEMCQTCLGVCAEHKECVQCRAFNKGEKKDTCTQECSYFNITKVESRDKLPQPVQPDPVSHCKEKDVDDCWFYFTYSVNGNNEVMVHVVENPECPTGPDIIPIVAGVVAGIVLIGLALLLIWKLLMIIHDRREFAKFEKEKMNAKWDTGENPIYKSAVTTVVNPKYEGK
Target sequence in this assay (P13612 34-1032 limits assumed, change not shown): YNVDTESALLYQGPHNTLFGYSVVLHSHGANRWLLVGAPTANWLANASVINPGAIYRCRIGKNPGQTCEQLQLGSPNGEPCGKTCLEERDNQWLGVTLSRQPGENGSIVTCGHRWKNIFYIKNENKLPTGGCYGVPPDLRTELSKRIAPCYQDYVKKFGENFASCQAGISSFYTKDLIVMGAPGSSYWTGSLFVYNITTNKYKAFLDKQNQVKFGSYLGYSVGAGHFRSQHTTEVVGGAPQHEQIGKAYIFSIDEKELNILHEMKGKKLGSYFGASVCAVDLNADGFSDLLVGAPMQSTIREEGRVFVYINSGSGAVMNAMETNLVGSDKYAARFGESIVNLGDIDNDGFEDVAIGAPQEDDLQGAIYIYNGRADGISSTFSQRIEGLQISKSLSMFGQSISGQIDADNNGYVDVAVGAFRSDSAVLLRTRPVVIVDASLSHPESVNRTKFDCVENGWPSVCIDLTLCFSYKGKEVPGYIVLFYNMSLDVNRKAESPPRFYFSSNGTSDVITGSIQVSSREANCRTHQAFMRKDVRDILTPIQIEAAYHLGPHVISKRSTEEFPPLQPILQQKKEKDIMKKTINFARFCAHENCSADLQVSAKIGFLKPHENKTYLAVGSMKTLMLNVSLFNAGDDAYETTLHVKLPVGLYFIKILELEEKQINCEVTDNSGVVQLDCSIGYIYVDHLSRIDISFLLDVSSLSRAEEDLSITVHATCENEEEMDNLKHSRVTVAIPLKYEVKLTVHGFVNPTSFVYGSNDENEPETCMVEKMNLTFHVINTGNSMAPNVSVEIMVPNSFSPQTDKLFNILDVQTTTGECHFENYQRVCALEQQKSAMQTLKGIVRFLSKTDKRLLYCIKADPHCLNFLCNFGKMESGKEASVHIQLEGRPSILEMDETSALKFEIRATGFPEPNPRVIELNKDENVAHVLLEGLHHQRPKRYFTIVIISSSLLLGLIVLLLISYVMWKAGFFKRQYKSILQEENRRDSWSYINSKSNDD
Experiment [3] concerns the target T1, Integrin alpha-4/beta-1. Kind of experiment: Inhibition of alpha4-beta1 integrin connecting segment 1 (CS1) splice variant binding interaction 100 uM.

As for `O=C(O)CCN1CCS[C@H](CC(=O)O)C(=O)N[C@@H](Cc2ccc(O)cc2)C1=O`, the inhibition on Integrin alpha-4/beta-1 [1] was 100%. This compound also came in with an IC50 at Integrin alpha-4/beta-1 [2] of 5 µM.

In turn, `O=C(O)CCN1CCS[C@@H](CC(=O)O)C(=O)N[C@@H](Cc2ccc(O)cc2)C1=O` gave an inhibition on Integrin alpha-4/beta-1 [3] of 100%. Besides, the IC50 on Integrin alpha-4/beta-1 [2] was 8 µM.

Regarding `CCCCN1CCS[C@@H](CC(=O)O)C(=O)N[C@@H](Cc2ccccc2)C1=O`, the inhibition at Integrin alpha-4/beta-1 [1] amounted to 41%. For the same compound, the IC50 at Integrin alpha-4/beta-1 [2] was above 100 µM.

For the compound `CC(C)CCN1CCS[C@@H](CC(=O)O)C(=O)N[C@@H](Cc2ccccc2)C1=O`, the inhibition on Integrin alpha-4/beta-1 [1] was determined as 0%. Besides, the half-maximal inhibitory concentration (IC50) on Integrin alpha-4/beta-1 [2] is above 100 µM.

As usually defined, the inhibition is the share of the control response that was lost under treatment. A lower inhibition goes with a weak effect. One may read the IC50 as the concentration needed to halve the response being measured. A low value points to inhibition by little substance.

For the origin of these results see ChEMBL document CHEMBL1130943, “Novel inhibitors of alpha 4 beta 1 integrin receptor interactions through library synthesis and screening” (Bioorg Med Chem Lett, 1998).
